Results as given in patent US20260364184A1, “COMPOUND BASED ON OXOISOINDOLINYL-SUBSTITUTED TETRAHYDROPYRIMIDINE-DIONE AND USE THEREOF” (GLUETACS THERAPEUTICS (SHANGHAI) CO., LTD., priority 2023, published 2026).

How the values were obtained:
Format in all cases: cell-based
[1] = target: T1, CDK4 (Homo sapiens, UniProt P11802+Q96SW2); test: Western blot degradation of CDK4; details: MDA-MB-231 Cell; 24 hours
T1 construct: expression of target proteins in cells; endogenous in cells
Description: (§1) Conventional Western blot assay was performed to evaluate the effects of the compounds of the present disclosure on the expression of target proteins in cells.
(§2) (1) Cell Seeding and Protein Harvesting: The selected cells were processed according to the cell seeding procedure and protein harvesting procedure in Table II-2.
(§3) (2) To the collected supernatant, 5×SDS sample loading buffer was added, followed by denaturation at 95 °C for 5 minutes. The denatured samples were then separated by SDS-PAGE electrophoresis on a polyacrylamide gel. Proteins were transferred to a nitrocellulose membrane (0.45 μm NC membrane), blocked with blocking buffer at room temperature for 1 hour, and subjected to antibody incubation and development procedures according to the antibody manufacturer's instructions (Cell Signaling Technology).
(§4) Half-Maximal Degradation Concentration value (the drug concentration required for degrading proteins by 50%, abbreviated as DC50) reads method: comparing the grayscale values of Western blot bands from drug-treated samples with those from blank DMSO-treated controls, and identifying the drug concentration range at which the grayscale value is half that of the DMSO-treated control bands.
(§5) DC50 values can be calculated using ImageJ software to measure grayscale values of Western blot bands from drug-treated samples. The concentration-response curve is fitted to estimate the drug concentration corresponding to half the grayscale value.
(§6) Target protein remaining (%) refers to the percentage of target protein remaining in cells after treatment with protein degrader compounds.
(§7) Calculation method for target protein remaining (%): Use ImageJ software to measure grayscale values of Western blot bands from drug (protein degrader)-treated samples. The grayscale value of drug-treated bands is divided by that of internal control protein bands, and the resulting quotient is normalized to obtain the relative percentage of remaining target protein after protein degrader treatment.
(§8) Target protein degradation rate (%)=1−target protein remaining (%).

[2] = target: T2, CDK6 (Homo sapiens, UniProt Q00534+Q96SW2); test: Western blot degradation of CDK6; details: MDA-MB-231 Cell; 24 hours
T2 construct: expression of target proteins in cells; endogenous in cells
Description: as §1, §2, §3, §4, §5, §6, §7, §8

[3] = system: Human lung cancer cell line (H292); test: Inhibition of H292 cell proliferation (CellTiter luminescent viability); details: NCI-H292, Table IM1, CDK9 inhibitor-based, 96 hours; for inhibition at 0.01 µM: H292, 10 nM, read-out: Inhibition Rate at 10 nM (%); for inhibition at 0.5 µM: H292, 500 nM, read-out: Inhibition Rate at 500 nM (%)
Description: The tumor cells used herein were cultured in a cell culture medium listed in table 3 at 37 °C in an incubator with 5% CO2. Prior to experimentation, all cell lines used were correctly identified by STR profiling, and tested negative for mycoplasma contamination using a mycoplasma detection kit through routine screenings.
The IC50 values of the compounds of the present disclosure (including the compounds in Table 1, Table 2, and Examples 1-468) were determined using the CellTiter-Meiluncell Luminescent Cell Viability Assay Kit from Dalian Meilun Biotech Co., Ltd. The detailed procedure is as follows: Tumor cells were seeded in 96-well cell culture plates at the densities specified in Table 4. On the following day, the test compounds of the present disclosure were subjected to serial dilution. The dilution can be performed according to one of the following two methods: • (1) The first dilution method: The test compounds of the present disclosure (including the compounds in Table 1, Table 2, and Examples 1-468) were subjected to 5-fold serial dilutions starting from a highest concentration of 2000 μM, resulting in a total of 9 concentrations from high to low (2000, 400, 80, 16, 3.2, 0.64, 0.128, 0.0256, 0.00512 μM). Subsequently, 0.5 μL of the test compound dilution was transferred into the 96-well plate containing the cells, with each well containing 100 μL of cell culture medium. […] Into the 96-well plate, the diluted test compounds and corresponding detection reagents were added, resulting in final test compound concentrations of 500 nM and 10 nM, respectively. The experimental procedure is described below using the diluted 2 μM test compound as an example.
0.5 μL of the aforementioned diluted compound of the present disclosure (including the compounds in Table 1, Table 2, and Examples 1-468) was added to the seeded cells in 100 μL of medium, yielding a final test compound concentration of 10 nM. After the cells were treated with the compounds of the present disclosure for a specified period, the cell viability assay reagent was added to the culture medium according to the kit's instructions to determine cell viability. […] All controls were treated using the same procedure as the compounds of the present disclosure. The growth inhibition curves for the compounds of the present disclosure were plotted using Prism GraphPad software, and the IC50 values were calculated therefrom.

[4] = Inhibition of RPMI-8226 cell proliferation (CellTiter luminescent viability); details: Homo sapiens; RPMI-8226; 10 nM; read-out: Inhibition Rate at 10 nM (%)
[5] = system: Human B-Cell Lymphoma Cells (RPMI-8226); test: as above; details: RPMI-8226, 500 nM, read-out: Inhibition Rate at 500 nM (%)

T1 sequence (P11802 whole entry): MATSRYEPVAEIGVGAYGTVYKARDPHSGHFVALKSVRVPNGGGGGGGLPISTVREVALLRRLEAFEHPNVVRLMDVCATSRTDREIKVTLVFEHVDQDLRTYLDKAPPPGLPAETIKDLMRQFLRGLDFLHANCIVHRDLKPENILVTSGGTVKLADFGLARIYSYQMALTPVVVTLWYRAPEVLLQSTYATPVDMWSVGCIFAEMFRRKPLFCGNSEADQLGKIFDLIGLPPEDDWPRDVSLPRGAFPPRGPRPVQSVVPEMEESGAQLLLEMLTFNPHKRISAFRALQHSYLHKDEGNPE
T1 sequence (Q96SW2 whole entry): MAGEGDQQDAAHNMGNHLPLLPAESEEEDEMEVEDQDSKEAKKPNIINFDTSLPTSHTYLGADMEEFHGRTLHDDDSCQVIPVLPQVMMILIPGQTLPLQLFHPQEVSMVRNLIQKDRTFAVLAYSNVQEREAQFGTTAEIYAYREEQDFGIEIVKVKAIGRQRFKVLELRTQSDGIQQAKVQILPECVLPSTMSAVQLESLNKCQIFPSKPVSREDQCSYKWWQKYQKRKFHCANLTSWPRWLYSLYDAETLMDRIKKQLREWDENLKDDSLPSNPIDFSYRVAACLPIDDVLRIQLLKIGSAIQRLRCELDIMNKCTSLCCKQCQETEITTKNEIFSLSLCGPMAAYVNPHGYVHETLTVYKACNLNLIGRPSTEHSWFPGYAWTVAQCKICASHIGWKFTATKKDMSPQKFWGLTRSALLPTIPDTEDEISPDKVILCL
T1 sequence (Q16531 whole entry partner): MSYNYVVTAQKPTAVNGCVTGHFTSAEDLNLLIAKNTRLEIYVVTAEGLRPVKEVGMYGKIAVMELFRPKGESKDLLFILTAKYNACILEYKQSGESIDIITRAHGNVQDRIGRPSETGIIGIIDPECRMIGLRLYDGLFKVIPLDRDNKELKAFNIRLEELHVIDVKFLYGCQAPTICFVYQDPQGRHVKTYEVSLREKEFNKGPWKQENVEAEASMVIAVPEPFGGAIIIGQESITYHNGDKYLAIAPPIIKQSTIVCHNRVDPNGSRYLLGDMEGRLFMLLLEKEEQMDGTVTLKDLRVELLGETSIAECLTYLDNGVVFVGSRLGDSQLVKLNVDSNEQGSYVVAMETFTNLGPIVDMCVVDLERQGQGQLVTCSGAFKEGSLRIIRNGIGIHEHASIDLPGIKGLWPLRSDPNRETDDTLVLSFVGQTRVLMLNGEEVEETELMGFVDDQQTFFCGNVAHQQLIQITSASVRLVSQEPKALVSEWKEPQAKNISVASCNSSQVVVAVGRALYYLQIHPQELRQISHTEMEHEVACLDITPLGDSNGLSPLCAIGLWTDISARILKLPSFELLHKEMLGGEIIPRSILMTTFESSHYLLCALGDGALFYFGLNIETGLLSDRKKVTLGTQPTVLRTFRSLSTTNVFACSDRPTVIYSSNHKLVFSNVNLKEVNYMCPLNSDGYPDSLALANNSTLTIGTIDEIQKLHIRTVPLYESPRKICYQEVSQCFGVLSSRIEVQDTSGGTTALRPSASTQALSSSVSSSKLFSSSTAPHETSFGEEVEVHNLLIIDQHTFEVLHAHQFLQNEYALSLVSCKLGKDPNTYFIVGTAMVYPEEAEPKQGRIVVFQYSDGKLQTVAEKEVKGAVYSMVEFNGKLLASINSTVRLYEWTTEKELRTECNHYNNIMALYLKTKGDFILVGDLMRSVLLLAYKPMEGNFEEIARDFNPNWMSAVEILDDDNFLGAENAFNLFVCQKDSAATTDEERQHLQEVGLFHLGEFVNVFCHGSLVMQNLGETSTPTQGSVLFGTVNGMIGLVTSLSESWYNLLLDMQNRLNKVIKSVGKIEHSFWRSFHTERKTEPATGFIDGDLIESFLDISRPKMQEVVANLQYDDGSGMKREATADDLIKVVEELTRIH
T2 sequence (Q00534 whole entry): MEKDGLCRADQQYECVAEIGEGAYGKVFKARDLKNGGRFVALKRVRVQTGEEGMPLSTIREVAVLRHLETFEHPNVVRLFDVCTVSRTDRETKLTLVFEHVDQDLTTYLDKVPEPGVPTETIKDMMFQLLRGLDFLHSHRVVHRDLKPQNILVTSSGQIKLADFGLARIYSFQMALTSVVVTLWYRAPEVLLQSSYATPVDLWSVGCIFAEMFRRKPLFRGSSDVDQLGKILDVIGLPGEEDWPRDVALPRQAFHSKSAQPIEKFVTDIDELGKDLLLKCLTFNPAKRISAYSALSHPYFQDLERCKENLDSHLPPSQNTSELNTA
T2 sequence (Q96SW2 whole entry): as the sequence (Q96SW2 whole entry) above
T2 sequence (Q16531 whole entry partner): as the sequence (Q16531 whole entry partner) above

SMILES	Degradation of substrate protein CDK4 (substrate protein remaining %) [1]	Degradation of substrate protein CDK6 (substrate protein remaining %) [2]	inhibition at 0.01 µM [3]	inhibition at 0.5 µM [3]	inhibition at 0.01 µM [4]	inhibition at 0.5 µM [5]
CN(C)C(=O)c1cc2cnc(Nc3ccc(N4CCC(CN5CC6CCC(C5)N6c5ccc6c(c5)C(=O)N(N5CCC(=O)NC5=O)C6=O)CC4)cn3)nc2n1C1CCCC1 [GT-05200, 7-cyclopentyl-2-((5-(4-((8-(2-(2,4-dioxotetrahydropyrimidin-1(2H)-yl)-1,3-dioxoisoindolin-5-yl)-3,8-diazabicyclo[3.2.1]octan-3-yl)methyl)piperidin-1-yl)pyridin-2-yl)amino)-N,N-dimethyl-7H-pyrrolo[2,3-d]pyrimidine-6-carboxamide]	B (80%<substrate protein remaining %≤100%)	A (0%≤substrate protein remaining %≤80%)	–	–	–	–
CN(C)C(=O)c1cc2cnc(Nc3ccc(N4CCC(CN5CCN(c6ccc7c(c6F)C(=O)N(N6CCC(=O)NC6=O)C7=O)CC5)CC4)cn3)nc2n1C1CCCC1 [GT-05203, 7-cyclopentyl-2-((5-(4-((4-(2-(2,4-dioxotetrahydropyrimidin-1(2H)-yl)-4-fluoro-1,3-dioxoisoindolin-5-yl)piperazin-1-yl)methyl)piperidin-1-yl)pyridin-2-yl)amino)-N,N-dimethyl-7H-pyrrolo[2,3-d]pyrimidine-6-carboxamide]	B (80%<substrate protein remaining %≤100%)	A (0%≤substrate protein remaining %≤80%)	–	–	–	–
CN(C)C(=O)c1cc2cnc(Nc3ccc(N4CCC(CN5CCN(c6cc(F)c7c(c6)C(=O)N(N6CCC(=O)NC6=O)C7=O)CC5)CC4)cn3)nc2n1C1CCCC1 [GT-05204, 7-cyclopentyl-2-((5-(4-((4-(2-(2,4-dioxotetrahydropyrimidin-1(2H)-yl)-7-fluoro-1,3-dioxoisoindolin-5-yl)piperazin-1-yl)methyl)piperidin-1-yl)pyridin-2-yl)amino)-N,N-dimethyl-7H-pyrrolo[2,3-d]pyrimidine-6-carboxamide]	B (80%<substrate protein remaining %≤100%)	A (0%≤substrate protein remaining %≤80%)	–	–	–	–
CN(C)C(=O)c1cc2cnc(Nc3ccc(N4CCC(CN5CCN(C6CCN(c7ccc8c(c7)C(=O)N(N7CCC(=O)NC7=O)C8=O)CC6(F)F)CC5)CC4)cn3)nc2n1C1CCCC1 (stereo not shown) [GT-05206, 7-cyclopentyl-2-((5-(4-((4-(1-(2-(2,4-dioxotetrahydropyrimidin-1(2H)-yl)-1,3-dioxoisoindolin-5-yl)-3,3-difluoropiperidin-4-yl)piperazin-1-yl)methyl)piperidin-1-yl)pyridin-2-yl)amino)-N,N-dimethyl-7H-pyrrolo[2,3-d]pyrimidine-6-carboxamide]	B (80%<substrate protein remaining %≤100%)	A (0%≤substrate protein remaining %≤80%)	–	–	–	–
CN(C)C(=O)c1cc2cnc(Nc3ccc(N4CCC(CN5C6CC5CN(c5ccc7c(c5)C(=O)N(N5CCC(=O)NC5=O)C7=O)C6)CC4)cn3)nc2n1C1CCCC1 [GT-05820, 7-cyclopentyl-2-((5-(4-((3-(2-(2,4-dioxotetrahydropyrimidin-1(2H)-yl)-1,3-dioxoisoindolin-5-yl)-3,6-diazabicyclo[3.1.1]heptan-6-yl)methyl)piperidin-1-yl)pyridin-2-yl)amino)-N,N-dimethyl-7H-pyrrolo[2,3-d]pyrimidine-6-carboxamide]	B (80%<substrate protein remaining %≤100%)	A (0%≤substrate protein remaining %≤80%)	–	–	–	–
CN(C)C(=O)c1cc2cnc(Nc3ccc(N4CCC(CN5CC6CCC5CN6c5ccc6c(c5)C(=O)N(N5CCC(=O)NC5=O)C6=O)CC4)cn3)nc2n1C1CCCC1 (stereo not shown) [GT-05831, 7-cyclopentyl-2-((5-(4-((5-(2-(2,4-dioxotetrahydropyrimidin-1(2H)-yl)-1,3-dioxoisoindolin-5-yl)-2,5-diazabicyclo[2.2.2]octan-2-yl)methyl)piperidin-1-yl)pyridin-2-yl)amino)-N,N-dimethyl-7H-pyrrolo[2,3-d]pyrimidine-6-carboxamide]	B (80%<substrate protein remaining %≤100%)	A (0%≤substrate protein remaining %≤80%)	–	–	–	–
CN(C)C(=O)c1cc2cnc(Nc3ccc(N4CCN(Cc5ccc6c(c5)C(=O)N(N5CCC(=O)NC5=O)C6=O)CC4)cn3)nc2n1C1CCCC1 [GT-06336, 7-cyclopentyl-2-((5-(4-((2-(2,4-dioxotetrahydropyrimidin-1(2H)-yl)-1,3-dioxoisoindolin-5-yl)methyl)piperazin-1-yl)pyridin-2-yl)amino)-N,N-dimethyl-7H-pyrrolo[2,3-d]pyrimidine-6-carboxamide]	A (0%≤substrate protein remaining %≤80%)	B (80%<substrate protein remaining %≤100%)	–	–	–	–
CN(C)C(=O)c1cc2cnc(Nc3ccc(N4CCN(CC5CCN(c6ccc7c(c6)C(=O)N(N6CCC(=O)NC6=O)C7=O)CC5)CC4)cn3)nc2n1C1CCCC1 [GT-06337, 7-cyclopentyl-2-((5-(4-((1-(2-(2,4-dioxotetrahydropyrimidin-1(2H)-yl)-1,3-dioxoisoindolin-5-yl)piperidin-4-yl)methyl)piperazin-1-yl)pyridin-2-yl)amino)-N,N-dimethyl-7H-pyrrolo[2,3-d]pyrimidine-6-carboxamide]	B (80%<substrate protein remaining %≤100%)	A (0%≤substrate protein remaining %≤80%)	–	–	–	–
O=C1CCN(N2Cc3cc(CN4CCN(c5ccc(CC(=O)Nc6cc(C7CCC7)[nH]n6)cc5)CC4)ccc3C2=O)C(=O)N1 [GT-08229, N-(5-cyclobutyl-1H-pyrazol-3-yl)-2-(4-(4-((2-(2,4-dioxotetrahydropyrimidin-1(2H)-yl)-1-oxoisoindolin-5-yl)methyl)piperazin-1-yl)phenyl)acetamide]	–	–	20 to 30%	30 to 40%	10 to 20%	10 to 20%
Cn1ncc(-c2nc(NC3CCN(CC4CCN(c5cccc6c5C(=O)N(N5CCC(=O)NC5=O)C6=O)CC4)CC3)ncc2Cl)c1CC1CC1 [GT-08347, 4-(4-((4-((5-chloro-4-(5-(cyclopropylmethyl)-1-methyl-1H-pyrazol-4-yl)pyrimidin-2-yl)amino)piperidin-1-yl)methyl)piperidin-1-yl)-2-(2,4-dioxotetrahydropyrimidin-1(2H)-yl)isoindoline-1,3-dione]	–	–	5 to 10%	20 to 30%	20 to 30%	10 to 20%
O=C1CCN(N2C(=O)c3ccc(N4CCC(CN5CCN(c6ccc(CC(=O)Nc7cc(C8CCC8)[nH]n7)cc6)CC5)CC4)cc3C2=O)C(=O)N1 [GT-08350, N-(5-cyclobutyl-1H-pyrazol-3-yl)-2-(4-(4-((1-(2-(2,4-dioxotetrahydropyrimidin-1(2H)-yl)-1,3-dioxoisoindolin-5-yl)piperidin-4-yl)methyl)piperazin-1-yl)phenyl)acetamide]	–	–	40 to 50%	40 to 50%	10 to 20%	20 to 30%
